The structures appear in SMILES notation. “And” between values parts separate entries of the source, which are not always exact repeats. Identical values can stand only once. Square brackets hold non-standard residues; d marks the D form. Peptide text beside a SMILES is read from it.

The target of one data set is Human IL-13 (Homo sapiens, UniProt P35225). Kind of data set: Surface plasmon resonance (SPR) binding assay, BIAcore 8K plus, immobilized Fc-tagged IL-13. The conditions noted are these: 25° C., human IL-13 with Fc-tag immobilized on CM5 chip, read-out: Binding Affinity (KD) for IL-13. The procedure:
A SPR assay was conducted to determine the binding affinity of the cyclic oligopeptides generated in Example 1 for IL-13 using a BIAcore 8K plus instrument (GE Healthcare). Human IL-13 with an Fc-tag was immobilized onto the surfaces of Series S Sensor CM5 (GE Healthcare) chips in the range of 5000 resonance units (RU). The binding kinetics were performed at 25° C. with a flow rate of 30 μL/min. The cyclic oligopeptides were analyzed in running buffer comprising 20 mM PBS, 2.7 mM KCl, […], 0.0500 Surfactant P20, pH 7.4, 1% DMSO, starting at 100 μM with gradient of ten two-fold dilutions using solvent correction mode.
FIGS. 2C, 3C, 4C, 5C, 6C, 7C, 8C, 9C, 10C, 11C, and 12C provide SPR response curves for the cyclic oligopeptides generated in Example 1, wherein the x-axis represents time of reaction and y-axis represents altitude of response (Response Units).
In general terms: Surface plasmon resonance follows binding to a sensor surface in real time, without labels.

Data set [1] can be described thus: Skin permeability, Franz Cell diffusion cell with artificial skin, Transdermal Diffusion Tester, BCA assay. It counts as in vitro ADME. The conditions noted are these: for Average Permeation Rate After 1 Hour (%) / Average Permeation Rate After 24 Hours (%): 32° C., 1.0 mg/mL in PBS; for Average Permeation Rate After 1 Hour (%) / Papp at 1 h, 1 mg/mL: after 1 hour; for Papp at 1 h, 1 mg/mL: read-out: Average Permeability Coefficient (Kp) After 1 hour (converted); for Average Permeation Rate After 24 Hours (%) / Papp at 24 h, 1 mg/mL: after 24 hours; for Papp at 24 h, 1 mg/mL: read-out: Average Permeability Coefficient (Kp) After 24 hours. On the procedure:
As used herein, the term “skin permeation rate” of a cyclic oligopeptide is measured using artificial skin (Start M, Merck), and refers to the percentage of the cyclic oligopeptide that penetrate the artificial skin after certain amount of time. For example, if 60% of the total amount of a cyclic oligopeptide of this disclosure has penetrated the artificial skin after 24 hours, then the skin permeation rate of the cyclic oligopeptide is 60% after 24 hours.
As used herein, the term “skin permeability coefficient (Kp)” refers to the rate at which the cyclic oligopeptide penetrates the skin, as measured using artificial skin (Start M, Merck). In some embodiments, permeability coefficient (Kp)(cm/hr) is calculated with the following equation:
[formula] wherein Q(mg) refers to the total amount of cyclic oligopeptide that pass through the artificial skin within a certain amount of time; A(cm^2) refers to the internal cross-section area of the artificial skin in a diffusion cell; T(hr) refers to the total amount of time of cyclic oligopeptide permeation; and ΔC(mg/mL) refers to the concentration difference of the cyclic oligopeptide between the two sides of the artificial skin. In some embodiments, the diffusion cell is a Franz Cell.
Skin permeability of the cyclic oligopeptides generated in Example 1 was measured using Transdermal Diffusion Tester (TK-12D, Shanghai Kai Kai Industrial Co Ltd) and artificial skin (Start M, Merck). Three parallel experimental groups were set up for each sample. The skin permeability of cyclic oligopeptides was evaluated by the following steps: • 1) 2.0 mg cyclic oligopeptide was weighed and dissolved in 100 μL DMSO. Three parallel experimental groups were set up for each cyclic oligopeptide. The cyclic oligopeptide-containing solution was then slowly added dropwise to 1900 μL 1×PBS solution and mixed evenly to prepare a PBS solution with a final concentration of 1.0 mg/mL cyclic polypeptide. • 2) A magnetron was inserted into a Franz Cell diffusion cell, and an artificial skin was sandwiched in the middle of the diffusion cell with the smooth side of the artificial skin facing up. The diffusion cell was then fixed with clamps after assembly. • 3) 7.75 ml 1×PBS solution were then added to the diffusion cell without generating bubbles in the diffusion cell. The sampling port of the diffusion cell was then sealed with parafilm to reduce evaporation. • 4) The temperature of a Transdermal Diffusion Tester was then set to 32° C., and the magneton speed was set to 180 r/min. • 5) The assembled diffusion cell was then put into the Transdermal Diffusion Tester and preheated for 5-10 mins. • 6) 400 μL of 1.0 mg/mL cyclic oligopeptide solution prepared in step 1) was then added to the upper chamber of the diffusion cell, making it evenly dispersed on the surface of the artificial skin without air bubbles. The top port of the diffusion cell was then covered with parafilm to reduce evaporation. • 7) Starting from the time of adding the cyclic oligopeptide solution, samples of about 0.5 mL of the receiving solution were taken at six time points, 1 h, 2 h, 4 h, 8 h, 12 h and 24 h, using a plastic dropper to take out the samples from the sampling port of the diffusion cell. 0.5 mL of 1×PBS solution was added into the diffusion cell to restore the initial volume of the receiving solution. When sampling, the diffusion cell was tilted appropriately to avoid the generation of bubbles. The samples were then numbered and store at −20° C. • 8) A BCA Assay (Micro BCA Protein Assay Kit, Thermo Scientific) was conducted to measure the concentration of cyclic oligopeptide in samples obtained in step 7) (Actual Concentration of the cyclic oligopeptide at the particular time point). Three parallel groups were used. The weight of cyclic oligopeptide in each sample obtained in step 7) equals to Actual Concentration×0.5 mL. • 9) Permeation rate of each cyclic oligopeptide at each time point was calculated according to the following equation: […]

A further data set is described as follows: FIG. 3D. On the procedure:
Table printed on a drawing sheet, FIG. 3D
The patent's description of the figure: FIG. 3A provides the MS spectrum for Compound 2. FIG. 3B provides the HPLC chromatogram for Compound 2. FIG. 3C provides SPR assay curves showing the binding affinity of Compound 2 for IL-13, the x-axis represents time of reaction and y-axis represents altitude of response (Response Units). FIG. 3D illustrates skin permeation rate of Compound 2 for up to 24 hours. FIG. 3E illustrates average permeability coefficient (Kp) of Compound 2 for 1, 2, 4, 8, 12 and 24 hours.
First reader's note: The substance name is taken from the legend of the plot printed above the table; the values are three replicate permeation rates, their average and their range.

A further data set in a line: FIG.4D. On the procedure:
Table printed on a drawing sheet, FIG.4D
The patent's description of the figure: FIG. 4A provides the MS spectrum for Compound 3. FIG. 4B provides the HPLC chromatogram for Compound 3. FIG. 4C provides SPR assay curves showing the binding affinity of Compound 3 for IL-13, the x-axis represents time of reaction and y-axis represents altitude of response (Response Units). FIG. 4D illustrates skin permeation rate of Compound 3 for up to 24 hours. FIG. 4E illustrates average permeability coefficient (Kp) of Compound 3 for 1, 2, 4, 8, 12 and 24 hours.
First reader's note: The substance name is printed only in the legend of the plot above the table; columns 2 to 4 are three replicate permeation measurements.

A further data set can be described thus: FIG. 5D. On the procedure: Table printed on a drawing sheet, FIG. 5D
The patent's description of the figure: FIG. 5A provides the MS spectrum for Compound 4. FIG. 5B provides the HPLC chromatogram for Compound 4. FIG. 5C provides SPR assay curves showing the binding affinity of Compound 4 for IL-13, the x-axis represents time of reaction and y-axis represents altitude of response (Response Units). FIG. 5D illustrates skin permeation rate of Compound 4 for up to 24 hours. FIG. 5E illustrates average permeability coefficient (Kp) of Compound 4 for 1, 2, 4, 8, 12 and 24 hours.
First reader's note: The substance name is taken from the legend of the plot above the table on the same sheet; the values are skin permeation rates over time.

Another data set can be described thus: FIG. 2D. The text has this: Table printed on a drawing sheet, FIG. 2D
The patent's description of the figure: FIG. 2A provides the mass spectrometry (MS) spectrum for Compound 1. FIG. 2B provides the high-performance liquid chromatography (HPLC) chromatogram for Compound 1. FIG. 2C provides surface plasmon resonance (SPR) assay curves showing the binding affinity of Compound 1 for IL-13, the x-axis represents time of reaction and y-axis represents altitude of response (Response Units). FIG. 2D illustrates skin permeation rate of Compound 1 for up to 24 hours. FIG. 2E illustrates average permeability coefficient (Kp) of Compound 1 for 1, 2, 4, 8, 12 and 24 hours.
First reader's note: Substance name is taken from the legend of the plot printed above the table; the values are skin permeation in three replicates, their average and their range.

The nature of another data set: FIG. 6D. The procedure: Table printed on a drawing sheet, FIG. 6D
The patent's description of the figure: FIG. 6A provides the MS spectrum of Compound 5. FIG. 6B provides the HPLC chromatogram for Compound 5. FIG. 6C provides SPR assay curves showing the binding affinity of Compound 5 for IL-13, the x-axis represents time of reaction and y-axis represents altitude of response (Response Units). FIG. 6D illustrates skin permeation rate of Compound 5 for up to 24 hours. FIG. 6E illustrates average permeability coefficient (Kp) of Compound 5 for 1, 2, 4, 8, 12 and 24 hours.
First reader's note: The substance name Compound 5 comes from the legend of the plot printed above the table; the values are three replicate permeation measurements with their average and range.

A further data set can be described thus: FIG. 7D. On the procedure: Table printed on a drawing sheet, FIG. 7D
The patent's description of the figure: FIG. 7A provides the MS spectrum for Compound 6. FIG. 7B provides the HPLC chromatogram for Compound 6. FIG. 7C provides SPR assay curves showing the binding affinity of Compound 6 for IL-13, the x-axis represents time of reaction and y-axis represents altitude of response (Response Units). FIG. 7D illustrates skin permeation rate of Compound 6 for up to 24 hours. FIG. 7E illustrates average permeability coefficient (Kp) of Compound 6 for 1, 2, 4, 8, 12 and 24 hours.
First reader's note: The substance name Compound 6 is taken from the legend of the plot printed above the table on the same sheet.

Sequence of Human IL-13 (P35225 25-146): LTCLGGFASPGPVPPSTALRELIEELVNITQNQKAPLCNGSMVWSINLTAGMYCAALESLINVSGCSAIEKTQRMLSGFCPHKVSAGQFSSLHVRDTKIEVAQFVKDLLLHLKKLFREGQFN

As usually defined, the Kd is the equilibrium constant for the complex coming apart. Consider `CC(C)[C@H]1NC(=O)[C@H]([C@@H](C)O)NC(=O)[C@H](CCCNC(=N)N)NC(=O)[C@H]2CCCN2C(=O)[C@@H](Cc2ccccc2)NC(=O)[C@H](CCC(=O)O)NC1=O` [Compound 2, Arg Thr D-Val Glu D-Phe D-Pro] (cyclo(E[dF][dP]RT[dV])), for which, on Human IL-13, the Kd worked out at 17.4 µM. In addition, in data set [1], the “Average Permeation Rate After 1 Hour (%)” value was 14.62%; the “Average Permeation Rate After 24 Hours (%)” value was found to be 30.51%; the Papp at 1 h, 1 mg/mL was 8.69 ×10⁻⁶ cm/s. Further, the “Permeation Avg. (%)” value in “FIG. 3D” was 18.57% and 23.21% and 25.36% and 28.50%.
Take `CC(C)[C@H]1NC(=O)[C@@H]([C@H](C)O)NC(=O)[C@H](CCC(=O)O)NC(=O)[C@H]2CCCN2C(=O)[C@H]2CCCN2C(=O)[C@H](Cc2c[nH]c3ccccc23)NC1=O` [Compound 3, Glu D-Thr D-Val Trp D-Pro D-Pro] (cyclo(E[dT][dV]W[dP][dP])): the dissociation constant (Kd) at Human IL-13 was found to be 22.8 µM. For the same compound, in data set [1], the “Average Permeation Rate After 1 Hour (%)” value came to 19.61%; the “Average Permeation Rate After 24 Hours (%)” value amounted to 36.59%; the Papp at 1 h, 1 mg/mL is 11.7 ×10⁻⁶ cm/s. Also, the “Permeation Avg. (%)” value in “FIG.4D” was 24.16% and 28.65% and 31.31% and 34.61%.
Consider `CC(C)[C@H]1NC(=O)[C@H](CCC(=O)O)NC(=O)[C@H](CCCNC(=N)N)NC(=O)[C@H]2CCCN2C(=O)[C@H]2CCCN2C(=O)[C@H](Cc2c[nH]c3ccccc23)NC1=O` [Compound 4, Arg Glu D-Val Trp D-Pro D-Pro] (cyclo(E[dV]W[dP][dP]R)), for which the Kd at Human IL-13 turned out to be 26.2 µM. In data set [1], the “Average Permeation Rate After 1 Hour (%)” value stood at 17.28%; the “Average Permeation Rate After 24 Hours (%)” value amounted to 35.59%; the Papp at 1 h, 1 mg/mL was 10.3 ×10⁻⁶ cm/s; the Papp at 24 h, 1 mg/mL is more than 0.0278 ×10⁻⁶ cm/s. Further, in the data set “FIG. 5D”, the “Permeation Avg. (%)” value is 21.81% and 27.10% and 30.14% and 33.22%.
As to `CC(C)[C@H]1NC(=O)[C@@H](Cc2ccccc2)NC(=O)[C@@H](CCCNC(=N)N)NC(=O)[C@@H]2CCCN2C(=O)[C@H](CCC(=O)O)NC(=O)[C@H](Cc2ccc(O)cc2)NC1=O` [Compound 1, D-Arg D-Phe D- Val Tyr Glu Pro] (cyclo(EP[dR][dF][dV]Y)), the Kd on Human IL-13 is 16 µM. For the same compound, in data set [1], the “Average Permeation Rate After 1 Hour (%)” value is 18.54%; the “Average Permeation Rate After 24 Hours (%)” value is recorded as 42.06%; the Papp at 1 h, 1 mg/mL is 11.1 ×10⁻⁶ cm/s; the Papp at 24 h, 1 mg/mL is more than 0.0278 ×10⁻⁶ cm/s. Besides, in the data set “FIG. 2D”, the “Permeation Avg. (%)” value is 23.80% and 30.38% and 34.53% and 39.28%.
Take `CC(C)[C@@H]1NC(=O)[C@H](Cc2c[nH]c3ccccc23)NC(=O)[C@H]2CCCN2C(=O)[C@H]2CCCN2C(=O)[C@H](CCC(=O)O)NC(=O)[C@H](CCCNC(=N)N)NC1=O` [Compound 5, Trp Val Arg Glu D-Pro D-Pro] (cyclo(E[dP][dP]WVR)): the Kd at Human IL-13 turned out to be 47.1 µM. Also, in data set [1], the “Average Permeation Rate After 24 Hours (%)” value came to 48.73% and the Papp at 1 h, 1 mg/mL was 13.4 ×10⁻⁶ cm/s. The “Permeation Avg. (%)” value in the data set “FIG. 6D” is 29.54% and 37.22% and 40.94% and 45.90%.
Take `CC(C)[C@H]1NC(=O)[C@@H]([C@H](C)O)NC(=O)[C@H](CCC(=O)O)NC(=O)[C@H](CCCNC(=N)N)NC(=O)[C@H](Cc2ccc(O)cc2)NC(=O)[C@H]2CCCN2C1=O` [Compound 6, Tyr Arg Glu D-Thr D-Val D-Pro] (cyclo(E[dT][dV][dP]YR)): the Kd on Human IL-13 was found to be 55.4 µM. Moreover, in “FIG. 7D”, the “Permeation Avg. (%)” value is 22.01% and 26.17% and 29.25% and 31.77%. For the same compound, in data set [1], the “Average Permeation Rate After 1 Hour (%)” value came out at 15.34%; the “Average Permeation Rate After 24 Hours (%)” value turned out to be 33.86%; the Papp at 1 h, 1 mg/mL was 9.14 ×10⁻⁶ cm/s.

(Values after US12180307B2, “Interleukin-13 binding cyclic oligopeptides and methods of use thereof” (B.A.I. LABORATORIES, LLC, priority 2022, dated 2024).)
